Laboratory results from patent publication US20130317055A1, “NEURONAL NICOTINIC AGONIST AND METHODS OF USE” (ABBVIE INC., priority 2012, published 2013).

Tested on: clinically stable subjects with schizophrenia
Assay: Clinical Study A (Phase 2a, placebo-controlled): MATRICS Consensus Cognitive Battery (MCCB)
Format: in vivo, human
Conditions: for MCCB Reasoning and Problem Solving: Difference from Placebo LS Mean (SE) of Difference / MCCB Reasoning and Problem Solving: LS Mean (SE) of Change from Baseline / MCCB Reasoning and Problem Solving: Observed Mean (SD) of change from baseline / MCCB Attention/Vigilance: Difference from Placebo LS Mean (SE) of Difference / MCCB Attention/Vigilance: LS Mean (SE) of Change from Baseline / MCCB Attention/Vigilance: Observed Mean (SD) of change from baseline / MCCB Social Cognition: Difference from Placebo LS Mean (SE) of Difference / MCCB Social Cognition: LS Mean (SE) of Change from Baseline / MCCB Social Cognition: Observed Mean (SD) of change from baseline / MCCB Speed of Processing: Difference from Placebo LS Mean (SE) of Difference / MCCB Speed of Processing: LS Mean (SE) of Change from Baseline / MCCB Speed of Processing: Observed Mean (SD) of change from baseline / MCCB Verbal Learning: Difference from Placebo LS Mean (SE) of Difference / MCCB Verbal Learning: LS Mean (SE) of Change from Baseline / MCCB Verbal Learning: Observed Mean (SD) of change from baseline / MCCB Visual Learning: Difference from Placebo LS Mean (SE) of Difference / MCCB Visual Learning: LS Mean (SE) of Change from Baseline / MCCB Visual Learning: Observed Mean (SD) of change from baseline / MCCB Working Memory: Difference from Placebo LS Mean (SE) of Difference / MCCB Working Memory: LS Mean (SE) of Change from Baseline / MCCB Working Memory: Observed Mean (SD) of change from baseline: 25 mg QD, ITT
Text: A Phase 2a proof-of-concept (POC) study in clinically stable subjects with schizophrenia who were clinically stable and received stable doses of atypical antipsychotic therapy. The study was a Phase 2, multi-center, randomized, double-blind, placebo-controlled, parallel group study designed to evaluate the safety and efficacy of doses of (4s)-4-(5-phenyl-1,3,4-thiadiazol-2-yloxy)-1-azatricyclo[3.3.1.1^3,7]decane (Compound A) in clinically stable male and female subjects (ages 20 to 55, inclusive) with a Diagnostic and Statistical Manual of Mental Disorders Fourth Edition, Text Revision (DSM-IV-TR) diagnosis of schizophrenia. Psychiatric diagnoses were confirmed using the Mini-International Neuropsychiatric Interview (MINI) version 6.0.0. The criteria for clinical stability was determined by a combination of retrospective data (over the 4 months prior to the start of Screening, which will be supported by clinical records, patient, identified responsible contact person, and physician interviews), and prospective data assessed during the Prospective Stabilization Period of 28 to 42 days duration.
The study was a Phase 2, multi-center, randomized, double-blind, placebo-controlled, parallel group study designed to evaluate the safety and efficacy of doses of (4s)-4-(5-phenyl-1,3,4-thiadiazol-2-yloxy)-1-azatrieyclo[3.3.1.1^3,7]decane, which is also recognized as Compound A, in treating cognitive deficits in subjects with schizophrenia who were clinically stable and receiving one or two atypical antipsychotic medications. Study drug was administered orally.
The study consisted of a screening period of at least 28 and up to 42 days, a 84-day outpatient treatment period, a 14-day post-treatment period, and a post-treatment follow-up period. The screening period consisted of three visits: Screening Visit 1, Screening Visit 2, and Day −1. Upon completion of Day −1 procedures, eligible subjects were randomized through an Interactive Voice Response/Interactive Web-Based (IVR/IWB) system. Subjects were randomized in an equal ratio to one of three treatment groups (placebo, 10 mg Compound A, or 25 mg Compound A).
Subjects were randomized in a 1:1:1 ratio with placebo, 10 mg QD Compound A, of 25 mg Compound A. Each subject was instructed to take study drug once-daily in the morning for 12 weeks. Each daily dose was preferably taken with food. The subject and investigator were blinded to the treatment assignment throughout the study. The treatment assignments for the study subjects are shown below in Table 1.
The primary endpoint was the MCCB composite score, and the primary endpoint analysis was the change on the MCCB composite score from baseline to endpoint versus placebo. Other secondary measures included the MCCB domains, the NSA-16, the CANTAB cognition battery (measured at different time points from the MCCB), and the UPSA-2. The Positive and Negative Syndrome Scale (PANSS) was included to document stability in schizophrenia symptomatology.
The MCCB was developed by a consortium of academic, industry, the Food and Drug Administration (FDA) and National Institute of Mental Health ([…]) members called Measurement and Treatment Research to Improve Cognition in Schizophrenia (MATRICS). The battery was established in a multiple phase process that involved experts identifying cognitive tests in the literature that had shown deficits in schizophrenia, use of factor analysis to identify key domains of cognitive deficits in schizophrenia, and then empirically identifying the best tests for each domain based on reliability, validity and feasibility for use in clinical trials. The FDA has endorsed the MCCB as an appropriate outcome measure for Phase 3 CDS trials. […]

c1ccc(-c2nnc(O[C@@H]3C4CC5C[C@H]3C[N@](C5)C4)s2)cc1 [Compound A, (4s)-4-(5-phenyl-1,3,4-thiadiazol-2-yloxy)-1-azatricyclo[3.3.1.1^3,7]decane]
MCCB Reasoning and Problem Solving: Difference from Placebo LS Mean (SE) of Difference (Change to Week 2): 1.20 (1.24) T-score
MCCB Reasoning and Problem Solving: LS Mean (SE) of Change from Baseline (Change to Week 2): 1.95 (0.92) T-score
MCCB Reasoning and Problem Solving: Observed Mean (SD) of change from baseline (Change to Week 2): 2.00 (6.25) T-score
MCCB Attention/Vigilance: Difference from Placebo LS Mean (SE) of Difference (Change to Week 6): 1.71 (1.41) T-score
MCCB Attention/Vigilance: LS Mean (SE) of Change from Baseline (Change to Week 6): 0.91 (1.06) T-score
MCCB Attention/Vigilance: Observed Mean (SD) of change from baseline (Change to Week 6): 1.09 (9.04) T-score
MCCB Reasoning and Problem Solving: Difference from Placebo LS Mean (SE) of Difference (Change to Week 6): 2.22 (1.08) T-score
MCCB Reasoning and Problem Solving: LS Mean (SE) of Change from Baseline (Change to Week 6): 2.18 (0.81) T-score
MCCB Reasoning and Problem Solving: Observed Mean (SD) of change from baseline (Change to Week 6): 2.11 (7.06) T-score
MCCB Social Cognition: Difference from Placebo LS Mean (SE) of Difference (Change to Week 6): −1.21 (1.40) T-score
MCCB Social Cognition: LS Mean (SE) of Change from Baseline (Change to Week 6): 0.30 (1.05) T-score
MCCB Social Cognition: Observed Mean (SD) of change from baseline (Change to Week 6): 0.06 (8.00) T-score
MCCB Speed of Processing: Difference from Placebo LS Mean (SE) of Difference (Change to Week 6): 1.84 (1.08) T-score
MCCB Speed of Processing: LS Mean (SE) of Change from Baseline (Change to Week 6): 2.24 (0.80) T-score
MCCB Speed of Processing: Observed Mean (SD) of change from baseline (Change to Week 6): 2.56 (5.36) T-score
MCCB Verbal Learning: Difference from Placebo LS Mean (SE) of Difference (Change to Week 6): 0.49 (1.18) T-score
MCCB Verbal Learning: LS Mean (SE) of Change from Baseline (Change to Week 6): 0.56 (0.88) T-score
MCCB Verbal Learning: Observed Mean (SD) of change from baseline (Change to Week 6): 0.41 (9.24) T-score
MCCB Visual Learning: Difference from Placebo LS Mean (SE) of Difference (Change to Week 6): −1.00 (1.65) T-score
MCCB Visual Learning: LS Mean (SE) of Change from Baseline (Change to Week 6): −1.15 (1.22) T-score
MCCB Visual Learning: Observed Mean (SD) of change from baseline (Change to Week 6): −1.06 (9.04) T-score
MCCB Working Memory: Difference from Placebo LS Mean (SE) of Difference (Change to Week 6): 2.39 (1.08) T-score
MCCB Working Memory: LS Mean (SE) of Change from Baseline (Change to Week 6): 1.88 (0.81) T-score
MCCB Working Memory: Observed Mean (SD) of change from baseline (Change to Week 6): 1.69 (7.43) T-score
MCCB Attention/Vigilance: Difference from Placebo LS Mean (SE) of Difference (Change to Week 12): 2.85 (1.57) T-score
MCCB Attention/Vigilance: LS Mean (SE) of Change from Baseline (Change to Week 12): 0.86 (1.16) T-score
MCCB Attention/Vigilance: Observed Mean (SD) of change from baseline (Change to Week 12): 0.88 (9.09) T-score
MCCB Social Cognition: Difference from Placebo LS Mean (SE) of Difference (Change to Week 12): −0.40 (1.61) T-score
MCCB Social Cognition: LS Mean (SE) of Change from Baseline (Change to Week 12): 0.19 (1.19) T-score
MCCB Social Cognition: Observed Mean (SD) of change from baseline (Change to Week 12): −0.14 (10.81) T-score
MCCB Speed of Processing: Difference from Placebo LS Mean (SE) of Difference (Change to Week 12): 0.37 (1.26) T-score
MCCB Speed of Processing: LS Mean (SE) of Change from Baseline (Change to Week 12): 1.66 (0.93) T-score
MCCB Speed of Processing: Observed Mean (SD) of change from baseline (Change to Week 12): 1.73 (7.28) T-score
MCCB Verbal Learning: Difference from Placebo LS Mean (SE) of Difference (Change to Week 12): 1.80 (1.17) T-score
MCCB Verbal Learning: LS Mean (SE) of Change from Baseline (Change to Week 12): 2.27 (0.87) T-score
MCCB Verbal Learning: Observed Mean (SD) of change from baseline (Change to Week 12): 2.24 (8.03) T-score
MCCB Visual Learning: Difference from Placebo LS Mean (SE) of Difference (Change to Week 12): 1.27 (1.68) T-score
MCCB Visual Learning: LS Mean (SE) of Change from Baseline (Change to Week 12): 0.83 (1.23) T-score
MCCB Visual Learning: Observed Mean (SD) of change from baseline (Change to Week 12): 1.24 (8.49) T-score
MCCB Working Memory: Difference from Placebo LS Mean (SE) of Difference (Change to Week 12): 2.03 (1.25) T-score
MCCB Working Memory: LS Mean (SE) of Change from Baseline (Change to Week 12): 2.14 (0.93) T-score
MCCB Working Memory: Observed Mean (SD) of change from baseline (Change to Week 12): 1.98 (6.84) T-score
MCCB composite score: LS mean change from baseline (25 mg, baseline to Week 6, MNIRIVI analysis, placebo LS mean +0.49): +1.27
MCCB domains with LS mean difference versus placebo greater in both dose groups (Week 6, 10 mg and 25 mg): 5 of the 7 MCCB domains
MCCB composite score: statistical significance of difference from placebo (each dose group (10 mg, 25 mg), Week 6): did not reach the level of statistical significance
Effect on cognition (patients with schizophrenia, summary statement): precognitive effects
